Measurements from article PMC8536414, “The LC-MS/MS-Based Measurement of Isopimaric Acid in Rat Plasma and Application of Pharmacokinetics” (BioMed Research International, 2021).
Read-outs that look alike come from different tables or passages of the source.

Tests used:
[1] = Stability of IPA in rat plasma QC samples under storage conditions; type: in vitro ADME; settings: for stability in rat plasma (in words): three QC concentrations; for Postpreparative, Measured: processed plasma sample; for Postpreparative, Measured / Long-term, Measured / Short-term, Measured / Three freeze-thaw, Measured: n = 5; for Long-term, Measured / Short-term, Measured / Three freeze-thaw, Measured: rat plasma
Method: IPA stability was examined by evaluating five replicate samples at the three QC concentration levels in a range of storage conditions. […] Processed sample stability was measured by incubating them for 24 h in the room temperature autosampler. In addition, long-term stability was measured following a 30-day storage period at -20°C, and freeze-thaw stability was measured by cycling samples from -20°C to 20°C three times. When the assay values associated with these samples were within a ±15% deviation from the nominal value, samples were considered to be stable.

[2] = Pharmacokinetic study of IPA in rats after i.v. or oral administration (LC-MS/MS of plasma, noncompartmental analysis); type: in vivo, Sprague-Dawley rats; settings: for AUC(0-inf) / MRT / half-life / AUC(0-t) / bioavailability / CL/F / Tmax / T max1: rat; for AUC(0-t): read-out: AUC(0~24); for bioavailability: oral, read-out: absolute bioavailability; for Tmax: read-out: T max 2; for C max1 / C max2: rat plasma; for C max1: n = 5
Method: Male Sprague-Dawley rats (220-250 g) from Shanghai Slac Laboratory Animal Co., Ltd. (Shanghai, China) (2018(hu)-08-0013) were housed in a climate-controlled facility (22 ± 2°C, 46 ± 20% relative humidity, 12 h light/dark cycle) with unlimited food and water access. After a 7-day acclimatization period, 20 rats were randomly assigned to undergo the administration of IPA via p.o. administration (50, 100, or 200 mg/kg) or via i.v. injection (5 mg/kg) for pharmacokinetic analyses. All animal studies received approval from the Animal Ethics Committee of the Naval Military Medical University. After developing and validating the above LC-MS/MS approach, it was employed to assess the pharmacokinetics of IPA following its intravenous or oral administration to rats as per the approved protocols discussed above. Briefly, after acclimatization, rats were fasted for 12 h and then randomized to undergo treatment with a 5 mg/kg i.v. dose of IPA or with oral IPA doses of 50, 100, or 200 mg/kg (n = 5/group). All IPA solutions were prepared in physiological saline and thoroughly mixed with CMC-Na. Blood samples (~0.4 mL) from these rats were collected in heparinized tubes at 0, 0.083, 0.167, 0.25, 0.5, 0.75, 1, 2, 3, 4, 6, 8, and 12 h following i.v. injection or at 0.167, 0.333, 0.5, 0.75, 1,1.5, 2, 4, 6, 8, 12, and 24 h following oral administration. Blood samples were spun for 5 min at 1,500 × g, after which plasma was collected and stored at -20°C prior to analysis. Plasma IPA concentrations were determined using the calibration curve established above based on peak area ratios from individual injection samples. The mean residence time (MRT0-t), area under the blood concentration-time curve (AUC0-∞, AUC0-t), body clearance (CL/F), and elimination half-life (T1/2) were quantified with the DAS 3.2.6 program (Chinese Pharmacology Society) via a noncompartmental approach. Concentration-time curves were used to establish maximum concentration (Cmax) and time to maximum concentration (Tmax) values. Data are given as means ± standard deviation (S.D.). Absolute bioavailability (F %) was determined as follows: F% = AUC0 − ∞(p.o.) dose (i.v.)/AUC0 − ∞(i.v.) dose (p.o.) × 100%.

[3] = male, Sprague-Dawley, plasma, iv, i.v. 5 mg/kg
[4] = male, Sprague-Dawley, plasma, po, p.o. 50 mg/kg
[5] = male, Sprague-Dawley, plasma, po, p.o. 100 mg/kg
[6] = male, Sprague-Dawley, plasma, po, p.o. 200 mg/kg

C=C[C@@]1(C)CC[C@H]2C(=CC[C@@H]3[C@]2(C)CCC[C@@]3(C)C(=O)O)C1 [IPA, isopimaric acid]
stability in rat plasma (in words) ([1]; 3 rounds of freeze-thawing): remained stable
stability in rat plasma (in words) ([1]; 3 h room temperature incubation): remained stable
stability in rat plasma (in words) ([1]; 30 days of storage at -20°C): remained stable
Postpreparative, Measured ([1]; spiked 10 ng·mL^−1, 24 h room temperature autosampler): 9.56 ± 0.88 ng/mL
Postpreparative, Measured ([1]; spiked 400 ng·mL^−1, 24 h room temperature autosampler): 371.2 ± 1.44 ng/mL
Postpreparative, Measured ([1]; spiked 2000 ng·mL^−1, 24 h room temperature autosampler): 2012 ± 0.12 ng/mL
Long-term, Measured ([1]; spiked 10 ng·mL^−1, 30 days at -20°C): 10.79 ± 1.46 ng/mL
Short-term, Measured ([1]; spiked 10 ng·mL^−1, room temperature): 9.65 ± 0.07 ng/mL
Three freeze-thaw, Measured ([1]; spiked 10 ng·mL^−1, three cycles -20°C to 20°C): 10.27 ± 0.56 ng/mL
Long-term, Measured ([1]; spiked 400 ng·mL^−1, 30 days at -20°C): 363.5 ± 1.82 ng/mL
Short-term, Measured ([1]; spiked 400 ng·mL^−1, room temperature): 407.0 ± 0.34 ng/mL
Three freeze-thaw, Measured ([1]; spiked 400 ng·mL^−1, three cycles -20°C to 20°C): 421.8 ± 1.08 ng/mL
Long-term, Measured ([1]; spiked 2000 ng·mL^−1, 30 days at -20°C): 1908.3 ± 0.92 ng/mL
Short-term, Measured ([1]; spiked 2000 ng·mL^−1, room temperature): 1840 ± 1.6 ng/mL
Three freeze-thaw, Measured ([1]; spiked 2000 ng·mL^−1, three cycles -20°C to 20°C): 1967 ± 0.34 ng/mL
postpreparation stability (in words) ([1]; room temperature for 24 h in the autosampler): remained stable
AUC(0-inf) [2, 3]: 818 ± 66.2 ng·h/mL
MRT [2, 3]: 1.4 ± 0.4 h
half-life [2, 3]: 6.6 ± 5.9 h
AUC(0-t) [2, 3]: 745 ± 140 ng·h/mL
bioavailability ([2]; male, Sprague-Dawley, plasma, p.o. 50 mg/kg vs i.v. 5 mg/kg): 11.9%
bioavailability ([2]; male, Sprague-Dawley, plasma, p.o. 100 mg/kg vs i.v. 5 mg/kg): 17.5%
AUC(0-inf) [2, 4]: 923 ± 614 ng·h/mL
MRT [2, 4]: 9.3 ± 1.3 h
half-life [2, 4]: 10.4 ± 9.8 h
AUC(0-t) [2, 4]: 887 ± 636 ng·h/mL
CL/F ([2]; male, Sprague-Dawley, plasma, po, p.o. 50 mg/kg, read-out: CL/F (converted)): 1170 mL/min/kg
Tmax [2, 4]: 6.4 ± 2.6 h
AUC(0-inf) [2, 5]: 2640 ± 1640 ng·h/mL
MRT [2, 5]: 7.6 ± 1.3 h
half-life [2, 5]: 5.5 ± 2.3 h
AUC(0-t) [2, 5]: 2600 ± 1630 ng·h/mL
CL/F ([2]; male, Sprague-Dawley, plasma, po, p.o. 100 mg/kg, read-out: CL/F (converted)): 983 mL/min/kg
Tmax [2, 5]: 6 ± 1.4 h
AUC(0-inf) [2, 6]: 3190 ± 1720 ng·h/mL
MRT [2, 6]: 7.9 ± 0.5 h
half-life [2, 6]: 3.6 ± 1 h
AUC(0-t) [2, 6]: 3180 ± 1720 ng·h/mL
CL/F ([2]; male, Sprague-Dawley, plasma, po, p.o. 200 mg/kg, read-out: CL/F (converted)): 1330 mL/min/kg
Tmax [2, 6]: 8.8 ± 1.1 h
C max1 ([2]; i.v. 5 mg/kg): 1740.1 ± 456.0 ng/mL
C max2 ([2]; p.o. 50 mg/kg): 61.6 ± 46.2 ng/mL
C max1 ([2]; p.o. 50 mg/kg): 83.7 ± 32.9 ng/mL
C max2 ([2]; p.o. 100 mg/kg): 284.9 ± 183.4 ng/mL
C max1 ([2]; p.o. 100 mg/kg): 296.4 ± 75.1 ng/mL
C max2 ([2]; p.o. 200 mg/kg): 286.9 ± 217.2 ng/mL
C max1 ([2]; p.o. 200 mg/kg): 246.23 ± 94.4 ng/mL
CL/F ([2]; i.v. 5 mg/kg): 6.1 ± 0.5 L/h
T max1 ([2]; i.v. 5 mg/kg): 0 ± 0 h
T max1 ([2]; p.o. 50 mg/kg): 0.9 ± 0.1 h
T max1 ([2]; p.o. 100 mg/kg): 0.6 ± 0.3 h
T max1 ([2]; p.o. 200 mg/kg): 0.65 ± 0.1 h
